From patent US20230271949A1, “GLP-1R MODULATING COMPOUNDS” (ASCLETIS BIOSCIENCE CO., LTD., priority 2022, published 2023)

Each compound was assayed against GLP-1R (Homo sapiens, UniProt P43220) (assay: GLP-1R agonist cAMP stimulation assay (HTRF cAMP)). Settings: HEK293 cell line expressing GLP-1 target; HTRF cAMP agonist mode, 30 min at RT.
Sequence of GLP-1R (P43220 24-463): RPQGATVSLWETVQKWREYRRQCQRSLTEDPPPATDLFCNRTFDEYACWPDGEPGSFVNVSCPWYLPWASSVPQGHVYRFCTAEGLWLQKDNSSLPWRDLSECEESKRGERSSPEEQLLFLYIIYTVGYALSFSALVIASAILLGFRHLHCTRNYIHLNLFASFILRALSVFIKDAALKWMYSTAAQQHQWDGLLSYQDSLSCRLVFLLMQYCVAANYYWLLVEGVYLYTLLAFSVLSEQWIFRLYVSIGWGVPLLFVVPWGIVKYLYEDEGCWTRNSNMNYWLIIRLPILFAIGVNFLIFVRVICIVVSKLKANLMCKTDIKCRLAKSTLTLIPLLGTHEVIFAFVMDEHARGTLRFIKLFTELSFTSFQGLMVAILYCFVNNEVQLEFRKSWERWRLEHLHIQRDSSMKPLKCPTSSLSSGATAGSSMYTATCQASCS
Assay type: cell-based
In short: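 Read-out was HTRF (665/615 ratio), interpolated onto a cAMP standard curve and normalised to DMSO (0%) and maximal GLP-1(7-37) reference (100%) wells. Assay: GLP-1R cells at 1.0×E5/mL incubated with compound dilution series (3-fold, 10 points) for 30 min at room temperature before 60 min detection.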
In the case of `Cc1cc(NC(=O)c2ccc3c(c2)nc(CN2CC=C(c4cccc5c4OC(C)(c4ccc(Cl)cc4F)O5)CC2)n3C[C@@H]2CCO2)cc2c1NC(=O)C21CC1` (stereo partly drawn) [Compound 301], the EC50 is reported as 0.18 nM.
Compound `Cc1cc(C(=O)Nc2ccc3c(c2)nc(CN2CC=C(c4cccc(OCc5ccc(Cl)cc5F)n4)CC2)n3C[C@@H]2CCO2)cc2c(C3CC3)n[nH]c12` [Compound 218] has an EC50 of 1.63 nM.
Compound `Cc1cc2c(C#N)ccc(COc3cccc(C4=CCN(Cc5nc6cc(C(=O)Nc7ccc8[nH]nc(C)c8c7)ccc6n5C[C@@H]5CCO5)CC4)n3)c2o1` [Compound 355] has an EC50 of 0.78 nM.
With `COc1n[nH]c2ccc(NC(=O)c3ccc4c(c3)nc(CN3CC=C(c5cccc(OCc6ccc(Cl)cc6F)n5)CC3)n4C[C@@H]3CCO3)cc12` [Compound 138] the EC50 was 8.92 nM.
`O=C(Nc1ccc2nc(CN3CC=C(c4cccc(OCc5ccc(Cl)cc5F)n4)CC3)n(CC3CCO3)c2c1)c1ccc2[nH]nc(F)c2c1` (stereo not drawn) [Compound 280] gave an EC50 of 21 nM.
For `CC1(c2ccc(C#N)cc2F)Oc2cccc(C3=CCN(Cc4nc5cc(NC(=O)c6ccc7[nH]nc(C8CC8)c7c6)ccc5n4CC4CCO4)CC3)c2O1` (stereo not drawn) [Compound 312], the EC50 was 0.99 nM.
In the case of `Cc1n[nH]c2c(Cl)cc(NC(=O)c3ccc4c(c3)nc(CN3CC=C(c5cccc6c5OC(C)(c5ccc(Cl)cc5F)O6)C[C@@H]3C)n4CC3CCO3)cc12` (stereo partly drawn) [Compound 302], the EC50 is reported as 1.07 nM.
For `COC(=O)[C@@H]1CC(F)(F)CN1C(=O)[C@H](C)NC(=O)c1ccc2c(c1)nc(CN1CC=C(c3cccc(OCc4ccc(Cl)cc4F)n3)CC1)n2C[C@@H]1CCO1` [Compound 71], the EC50 was 132 nM.
In the case of `Cc1n[nH]c2ccc(C(=O)Nc3ccc4c(c3)nc(Cc3cc(F)c(-c5cccc6c5OC(C)(c5ccc(Cl)cc5F)O6)cc3F)n4CC3CCO3)cc12` (stereo not drawn) [Compound 318], the EC50 is reported as 1.53 nM.
Work on `O=C(Nc1cc(F)c2[nH]ncc2c1)c1ccc2c(c1)nc(CN1CCC(c3cccc(OCc4ccc(Cl)cc4F)n3)CC1)n2C[C@@H]1CCO1` [Compound 102] yielded an EC50 of 1.33 nM.
In the case of `Cc1cc(-c2cn(-c3ccc4c(c3)nc(CN3CC=C(c5cccc(OCc6ccc(Cl)cc6F)n5)CC3)n4C[C@@H]3CCO3)cn2)[nH]n1` [Compound 397], the EC50 is reported as 127 nM.
`Cc1cc(NC(=O)c2ccc3c(c2)nc(CN2CCC(c4cccc(OCc5ccc(C#N)cc5F)n4)CC2)n3C[C@@H]2CCO2)cc2c(C(F)F)n[nH]c12` [Compound 132] was tested, and the EC50 was 0.74 nM.
In the case of `CC1(c2ccc(Cl)cc2F)Oc2cccc(C3=CCN(Cc4nc5cc(NC(=O)c6cc(F)c7c(c6)C6(CC6)C(=O)N7)ccc5n4C[C@@H]4CCO4)CC3)c2O1` (stereo partly drawn) [Compound 314], the EC50 is reported as 0.63 nM.
`N#Cc1ccc(COc2cccc(C3CCN(Cc4nc5cc(C(=O)Nc6cc(F)c7c(c6)C6(CC6)C(=O)N7)ccc5n4C[C@@H]4CCO4)CC3)n2)c(F)c1` [Compound 125] showed an EC50 of 0.55 nM.
Work on `O=C(Nc1ccc2c(c1)nc(CN1CC=C(c3cccc(OCc4ccc(Cl)cc4F)n3)CC1)n2C[C@@H]1CCO1)c1cc(F)c2[nH]ncc2c1` [Compound 205] yielded an EC50 of 0.98 nM.
In the case of `Cc1n[nH]c2c(C(F)(F)F)cc(NC(=O)c3ccc4c(c3)nc(CN3CC=C(c5cccc6c5O[C@@](C)(c5ccc(Cl)cc5F)O6)CC3)n4CC3CCO3)cc12` (stereo partly drawn) [Compound 388], the EC50 is reported as 0.82 nM.
With `O=C(Nc1ccc2c(c1)nc(CN1CC=C(c3cccc(OCc4ccc(Cl)cc4F)n3)CC1)n2C[C@@H]1CCO1)c1ccc2[nH]nc(C(F)F)c2c1` [Compound 219] the EC50 was 1.21 nM.
Work on `COCCn1c(CN2CCC(c3cccc(OCc4ccc(Cl)cc4F)n3)CC2)nc2cc(C(=O)NCc3ccc(O)c(C(=O)O)c3)ccc21` [Compound 37] yielded an EC50 of 106 nM.
`O=C(Nc1ccn2ncc(Cl)c2c1)c1ccc2c(c1)nc(CN1CCC(c3cccc(OCc4ccc(Cl)cc4F)n3)CC1)n2CC1CCO1` (stereo not drawn) [Compound 97] showed an EC50 of 140 nM.
In the case of `C[C@H](NC(=O)c1ccc2c(c1)nc(CN1CCC(c3cccc(OCc4ccc(Cl)cc4F)n3)CC1)n2C[C@@H]1CCO1)C(=O)N1CC(F)(F)C[C@H]1C(=O)O` [Compound 66], the EC50 is reported as 1.41 nM.
With `Cc1cc(NC(=O)c2ccc3c(n2)nc(CN2CC=C(c4cccc(OCc5ccc(Cl)cc5F)n4)CC2)n3C[C@@H]2CCO2)cc2cn[nH]c12` [Compound 137] the EC50 was 5.49 nM.
Compound `Cc1n[nH]c2c(C)cc(C(=O)Nc3ccc4c(c3)nc(CN3CC=C(c5cccc6c5OC(C)(c5ccc(Cl)cc5F)O6)CC3)n4CC3CCO3)cc12` (stereo not drawn) [Compound 305] has an EC50 of 0.19 nM.
Work on `O=C(Nc1ccc2c(c1)C1(CC1)C(=O)N2)c1ccc2c(c1)nc(CN1CC=C(c3cccc(OCc4ccc(Cl)cc4F)n3)CC1)n2C[C@@H]1CCO1` [Compound 143] yielded an EC50 of 0.75 nM.
`COCCn1c(CN2CCC(c3cccc(OCc4ccc(Cl)cc4F)n3)CC2)nc2cc(C(=O)NCCCn3ccnc3)ccc21` [Compound 16] was tested, and the EC50 was 146 nM.
`Cc1cc(C(=O)Nc2ccc3c(c2)nc(CN2CC=C(c4cccc(OCc5ccc(Cl)cc5F)n4)CC2)n3C[C@@H]2CCO2)cc2cn[nH]c12` [Compound 199] showed an EC50 of 0.47 nM.
`CC(C)c1n[nH]c2ccc(C(=O)Nc3ccc4c(c3)nc(Cc3cc(F)c(-c5cccc6c5OC(C)(c5ccc(C#N)cc5F)O6)cc3F)n4CC3CCO3)cc12` (stereo not drawn) [Compound 323] showed an EC50 of 2.73 nM.
Work on `O=C(Nc1cc(C(F)(F)F)c2[nH]ncc2c1)c1ccc2c(c1)nc(CN1CC=C(c3cccc(OCc4ccc(Cl)cc4F)n3)CC1)n2C[C@@H]1CCO1` [Compound 158] yielded an EC50 of 1.03 nM.
`Cc1n[nH]c2c(F)cc(C(=O)Nc3ccc4nc(CN5CC=C(c6cccc(OCc7ccc(Cl)cc7F)n6)CC5)n(CC5CCO5)c4c3)cc12` (stereo not drawn) [Compound 277] was tested, and the EC50 was 0.76 nM.
Work on `Cc1n[nH]c2c(F)cc(C(=O)Nc3ccc4c(c3)nc(CN3CC=C(c5cccc(OCc6ccc(C#N)cc6F)n5)CC3)n4C[C@@H]3CCO3)cc12` [Compound 225] yielded an EC50 of 0.18 nM.
`Cc1n[nH]c2c(F)cc(NC(=O)c3ccc4c(c3)nc(CN3CCC(c5cccc(OCc6cc(F)c(C#N)s6)n5)CC3)n4C[C@@H]3CCO3)cc12` [Compound 375] gave an EC50 of 1.01 nM.
`CC1(c2ccc(Cl)cc2F)Oc2cccc(C3=CCN(Cc4nc5cc(C(=O)Nc6ccc7[nH]nc(C(F)(F)F)c7c6)ccc5n4CC4CCO4)CC3)c2O1` (stereo not drawn) [Compound 297] showed an EC50 of 3.65 nM.
In the case of `O=C(NCC(=O)N1CC[C@@H](O)C1)c1ccc2c(c1)nc(CN1CCC(c3cccc(OCc4ccc(Cl)cc4F)n3)CC1)n2C[C@@H]1CCO1` [Compound 77], the EC50 is reported as 1.9 nM.
With `Cc1n[nH]c2c(C)cc(NC(=O)c3cc4c(nc(CN5CC=C(c6cccc(OCc7ccc(Cl)cc7F)n6)CC5)n4C[C@@H]4CCO4)s3)cc12` [Compound 405] the EC50 was 39.9 nM.
In the case of `Cc1n[nH]c2c(C)cc(C(=O)Nc3ccc4nc(CN5CC=C(c6cccc(OCc7ccc(C#N)cc7F)n6)CC5)n(CC5CCO5)c4c3)cc12` (stereo not drawn) [Compound 291], the EC50 is reported as 0.75 nM.
Compound `COCCn1c(Cc2ccc(-c3cccc(OCc4ccc(C#N)cc4F)n3)cc2)nc2cc(C(=O)NCCc3ccc(C(=O)O)cc3)ccc21` [Compound 12] has an EC50 of 122 nM.
For `Cc1n[nH]c2c(C(F)(F)F)cc(NC(=O)c3ccc4c(c3)nc(CN3CC=C(c5cccc6c5O[C@](C)(c5ccc(Cl)cc5F)O6)CC3)n4CC3CCO3)cc12` (stereo partly drawn) [Compound 389], the EC50 was 2.81 nM.
`Cc1cc(C(=O)Nc2ccc3nc(CN4CC=C(c5cccc(OCc6ccc(Cl)cc6F)n5)CC4)n(C[C@@H]4CCO4)c3c2)cc2c1NC(=O)C21CC1` [Compound 282] showed an EC50 of 4.32 nM.
Work on `Cc1n[nH]c2c(F)cc(C(=O)Nc3ccc4c(c3)nc(CN3CC=C(c5cccc6c5OC(C)(c5ccc(Cl)cc5F)O6)CC3)n4CC3CCO3)cc12` (stereo not drawn) [Compound 304] yielded an EC50 of 0.18 nM.
Compound `Cc1cc2c(C#N)ccc(COc3cccc(C4=CCN(Cc5nc6cc(NC(=O)c7ccc8[nH]nc(C(F)(F)F)c8c7)ccc6n5C[C@@H]5CCO5)CC4)n3)c2o1` [Compound 359] has an EC50 of 1.62 nM.
Work on `C[C@@H](NC(=O)c1ccc2c(c1)nc(CN1CCC(c3cccc(OCc4ccc(Cl)cc4F)n3)CC1)n2C[C@@H]1CCO1)C(=O)N1C[C@@H](O)C[C@@H]1C(=O)O` [Compound 65] yielded an EC50 of 1.75 nM.
Work on `Cc1n[nH]c2ccc(NC(=O)c3ccc4c(c3)nc(CN3CC=C(c5cccc6c5O[C@](C)(c5ccc(Cl)cc5F)O6)CC3)n4C[C@@H]3CCO3)cc12` [Compound 6] yielded an EC50 of 1.21 nM.
`Cc1n[nH]c2ccc(C(=O)Nc3ccc4c(c3)nc(CN3CC=C(c5cccc(OCc6ccc(Cl)cc6F)n5)CC3)n4C[C@@H]3CCO3)cc12` [Compound 4, (S)—N-(2-((6-((4-chloro-2-fluorobenzyl)oxy)-3′,6′-dihydro-[2,4′-bipyridin]-1′(2′H)-yl)methyl)-1-(oxetan-2-ylmethyl)-1H-benzo[d]imidazol-5-yl)-3-methyl-1H-indazole-5-carboxamide] showed an EC50 of 0.14 nM.
`Cc1cc(NC(=O)c2ccc3c(c2)nc(CN2CC=C(c4cccc(OCc5ccc(Cl)cc5F)n4)CC2)n3C[C@@H]2CCO2)c(C)c2c(C)n[nH]c12` [Compound 173] gave an EC50 of 31.5 nM.
Work on `Cc1cc(NC(=O)c2ccc3c(c2)nc(CN2CCC(c4cccc(OCc5ccc(Cl)cc5F)n4)CC2)n3C[C@@H]2CCO2)c(F)c2c(C)n[nH]c12` [Compound 121] yielded an EC50 of 4.23 nM.
Compound `CC(C)c1n[nH]c2ccc(C(=O)Nc3ccc4c(c3)nc(CN3CC=C(c5cccc(OCc6ccc(Cl)cc6F)n5)CC3)n4C[C@@H]3CCO3)cc12` [Compound 200] has an EC50 of 0.82 nM.
Compound `COC(=O)[C@@H]1CC(F)(F)CN1C(=O)CNC(=O)c1ccc2c(c1)nc(CN1CCC(c3cccc(OCc4ccc(Cl)cc4F)n3)CC1)n2C[C@@H]1CCO1` [Compound 64] has an EC50 of 151 nM.
For `Cc1n[nH]c2ccc(NC(=O)c3ccc4c(c3)nc(CN3CC=C(c5cccc(OCc6ccc(C#N)cc6F)n5)CC3)n4C[C@@H]3CCO3)cc12` [Compound 187], the EC50 was 0.2 nM.
Work on `CC1(c2ccc(Cl)cc2F)Oc2cccc(C3=CCN(Cc4nc5cc(C(=O)Nc6ccc7[nH]nc(C8CC8)c7c6)ccc5n4CC4CCO4)CC3)c2O1` (stereo not drawn) [Compound 294] yielded an EC50 of 1.02 nM.
Work on `Cc1n[nH]c2c(C)cc(NC(=O)c3ccc4c(c3)nc(CN3CCC(c5cccc(OCc6cc(F)c(C#N)s6)n5)CC3)n4C[C@@H]3CCO3)cc12` [Compound 376] yielded an EC50 of 0.98 nM.
`Cc1cc2c(Cl)ccc(COc3cccc(C4=CCN(Cc5nc6cc(C(=O)Nc7cc(C)c8[nH]nc(C(F)F)c8c7)ccc6n5C[C@@H]5CCO5)CC4)n3)c2o1` [Compound 349] was tested, and the EC50 was 1.61 nM.
With `O=C(Nc1ccc2c(c1)nc(C(F)(F)N1CC=C(c3cccc(OCc4ccc(Cl)cc4F)n3)CC1)n2C[C@@H]1CCO1)c1ccc2[nH]nc(C3CC3)c2c1` [Compound 258] the EC50 was 31.8 nM.
